For one experiment, the target named is AeNobo-WT (Aedes aegypti, UniProt A0A1S4FIB3). Description: GST activity inhibition assay with 3,4-DNADCF, wild-type AeNobo. The format is biochemical. Here is the method: We prepared a purified AeNobo recombinant protein (220-aa length) using an Escherichia coli protein expression system. The GST enzymatic activity was examined using the fluorogenic artificial substrate 3,4-dinitrobenzamidedichlorofluorescein (3,4-DNADCF).
The IC50 value was measured using an in vitro assay system as described previously. […] Five microliters of each diluted compound solution was mixed with 245 μL of solution A (100 mM sodium phosphate buffer at pH 6.5, 0.01% Tween 20, 2 mM GSH, and 50 ng/mL AeNobo-WT, 100 ng/mL AeNobo-E113A, and 200 ng/mL F39L). One hundred microliters of the mixture was dispensed into wells of a 96-well plate. One hundred microliters of solution B (0.2 μM 3,4-DNADCF and 100 mM sodium phosphate buffer at pH 6.5) was added to each well. In summary, the final reaction system comprised 100 mM sodium phosphate buffer (pH 6.5), 1 mM GSH, 0.005% Tween 20, 0.1 μM 3,4-DNACDF, and 25 ng/mL AeNobo, 50 ng/mL AeNobo-E113A, or 100 ng/mL AeNobo-F39L protein. The fluorescence intensity derived from 4-GS-3-NADCF, a product of this reaction, was measured for 3 min. IC50 values were estimated as described previously. The enzymatic assays under each condition were performed at least twice independently.
To identify inhibitors of AeNobo enzymatic activity, a high-throughput screening was performed as described in a previous study. Briefly, a core library of 9600 compounds obtained from the Drug Discovery Initiative, The University of Tokyo, was utilized for screening. In this screen, the enzymatic activity of AeNobo was detected using 3,4-DNADCF [29]. […] Then, 1 μL of solution B (4 μM 3,4-DNADCF, 100 mM sodium phosphate at pH 6.5, and 0.005% Tween 20) was added into each well. In summary, the reaction system comprised 5.6 ng/mL AeNobo protein, 2 μM 3,4-DNADCF, 1 mM GSH, 0.005% Tween 20, and 100 mM sodium phosphate at pH 6.5, together with each compound at 10 μM. The plate was incubated for 30 min at 25–27 °C and 2 μL of 10 mM N-ethylmaleimide was added into each well to stop the reaction. […] For the second screen, we assayed the IC50 values of the compounds against the enzymatic activity of AeNobo.

The next experiment concerns the target AeNobo-E113A (Aedes aegypti, UniProt A0A1S4FIB3, E164K). Description: GST activity inhibition assay with 3,4-DNADCF, AeNobo-E113A. Type of experiment: biochemical. From the text: The importance of the Glu-113–flavonoid hydrogen bond for flavonoid binding was biochemically examined with a recombinant mutated AeNobo protein carrying an E113A aa substitution (AeNobo-E113A).
(§1) pCold III plasmids expressing the AeNobo-E113A and AeNobo-F39L were constructed using KOD-Plus-Mutagenesis Kit (Toyobo). The following primers were used: E113A-F (5′-[…]-3′) and E113A-R (5′-[…]-3′) for AeNobo-E113A and F39L-F (5′-[…]-3′) and F39L-R (5′-[…]-3′) for AeNobo-F39L. We conducted inverse PCR using KOD-plus polymerase, pColdIII/AeNobo-WT plasmid, and the primer pair described above under the following conditions: pre-denaturation at 94 °C for 2 min, denaturation at 98 °C for 10 s, and extension at 68 °C for 6 min for 6 cycles. The PCR products were treated with DpnI at 37 °C for 1 h, followed by self-ligation using T4 polynucleotide kinase and Ligation High. After the transformation of DH5α bacteria using the ligation products, we extracted plasmid DNA from the colonies and verified their sequences to confirm whether the appropriate point mutations were introduced.
The IC50 value was measured using an in vitro assay system as described previously. A dilution series of compounds, ranging from 2.5 mM to 0.127 μM for DMG and from 2.5 mM to 4.9 μM for other compounds, was prepared by 2-fold serial dilution in DMSO. Five microliters of each diluted compound solution was mixed with 245 μL of solution A (100 mM sodium phosphate buffer at pH 6.5, 0.01% Tween 20, 2 mM GSH, and 50 ng/mL AeNobo-WT, 100 ng/mL AeNobo-E113A, and 200 ng/mL F39L). One hundred microliters of the mixture was dispensed into wells of a 96-well plate. One hundred microliters of solution B (0.2 μM 3,4-DNADCF and 100 mM sodium phosphate buffer at pH 6.5) was added to each well. In summary, the final reaction system comprised 100 mM sodium phosphate buffer (pH 6.5), 1 mM GSH, 0.005% Tween 20, 0.1 μM 3,4-DNACDF, and 25 ng/mL AeNobo, 50 ng/mL AeNobo-E113A, or 100 ng/mL AeNobo-F39L protein. The fluorescence intensity derived from 4-GS-3-NADCF, a product of this reaction, was measured for 3 min. IC50 values were estimated as described previously. The enzymatic assays under each condition were performed at least twice independently.

The test system of experiment [1] is Ae. aegypti 1st instar larvae. The note with it: cited from earlier work.
The next experiment addresses AeNobo-F39L (Aedes aegypti, UniProt A0A1S4FIB3, F90L). Description: GST activity inhibition assay with 3,4-DNADCF, AeNobo-F39L. The format is biochemical. Here is the method:
as §1
The IC50 value was measured using an in vitro assay system as described previously. A dilution series of compounds, ranging from 2.5 mM to 0.127 μM for DMG and from 2.5 mM to 4.9 μM for other compounds, was prepared by 2-fold serial dilution in DMSO. […] The fluorescence intensity derived from 4-GS-3-NADCF, a product of this reaction, was measured for 3 min. […]

[2] abbreviates: Table S2, estrogenic compounds against AeNobo, read-out: IC50 (μM) (mean ± s.d.).
Where [3] appears, read: Table 1, GSH conjugation of 3,4-DNADCF, read-out: IC50 to AeNobo-WT (μM) (mean ± s.d.).
Where [4] appears, read: read-out: IC50 (μM) (mean ± s.d.).
Setting [5] is: Table S5, luteolin derivatives against AeNobo, read-out: IC50 (μM) (mean ± s.d.).

These results are taken from paper PMC8851771, “Molecular action of larvicidal flavonoids on ecdysteroidogenic glutathione S-transferase Noppera-bo in Aedes aegypti” (BMC Biology, 2022).

Where two headings read alike, the source gives them in different places. Bounds are passed on as bounds.

AeNobo-WT, sequence (A0A1S4FIB3 entry or part of it): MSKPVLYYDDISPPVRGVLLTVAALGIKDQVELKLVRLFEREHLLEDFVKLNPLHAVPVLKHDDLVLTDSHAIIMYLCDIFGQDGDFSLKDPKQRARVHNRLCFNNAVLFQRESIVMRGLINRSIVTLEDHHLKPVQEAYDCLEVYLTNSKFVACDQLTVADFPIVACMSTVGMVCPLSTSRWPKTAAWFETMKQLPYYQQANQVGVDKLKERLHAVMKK
AeNobo-E113A, sequence (A0A1S4FIB3 entry or part of it E164K): as the sequence (A0A1S4FIB3 entry or part of it) above, with E113K counted along it
AeNobo-F39L, sequence (A0A1S4FIB3 entry or part of it F90L): as the sequence (A0A1S4FIB3 entry or part of it) above, with F39L counted along it

On to `ClC(Cl)=C(c1ccc(Cl)cc1)c1ccc(Cl)cc1` [1,1-Dichloro-2,2-bis(4-chlorophenyl)ethene], for which the IC50 at AeNobo-WT was over 25 µM.
On to `CCCCOC(=O)c1ccccc1C(=O)OCc1ccccc1` [1-benzyl 2-butyl benzene-1,2-dicarboxylate], for which the IC50 on AeNobo-WT (setting [2]) was over 25 µM.
In turn, `Cn1c(N)nc2ncc(-c3ccccc3)cc21` [2-Amino-1-methyl-6-phenylimidazo[4,5-b]pyridine] displayed an IC50 on AeNobo-WT of over 25 µM.
As for `O=C1CC(c2ccccc2O)Oc2ccccc21` (stereo not drawn) [2′-Hydroxyflavanone], the IC50 on AeNobo-WT (setting [3]) was 4.76 ± 0.37 µM; at AeNobo-E113A, over 25 µM.
With `O=c1c(-c2ccc(O)cc2)coc2ccccc12` [3-(4-Hydroxyphenyl)-4H-chromen-4-one], the “Inhibition of enzymatic activity of AeNobo (in words)” value (“Inhibition” below) at AeNobo-WT (3,4-DNADCF) is reported as “did not inhibit”. At AeNobo-WT (setting [4]), the concentration for half-maximal inhibition (IC50) is over 25 µM.
As for `CC(C)(C)CC(C)(C)c1ccc(O)cc1` [4-(2,4,4-trimethylpentan-2-yl)phenol], the IC50 at AeNobo-WT (setting [2]) was over 25 µM.
`Oc1ccc(C(c2ccc(O)cc2)C(Cl)(Cl)Cl)cc1` [4-[2,2,2-trichloro-1-(4-hydroxyphenyl)ethyl]phenol] showed an IC50 against AeNobo-WT of over 25 µM.
In the case of `CC1=CC[C@@H]2C[C@H]1C(c1ccc(O)cc1)OC2(C)C` (stereo partly drawn) [4-[(1R,5R)-4,4,8-trimethyl-3-oxabicyclo[3.3.1]non-7-en-2-yl]phenol], the IC50 at AeNobo-WT (setting [2]) is over 25 µM.
Still for that read-out and setting: the value for `CC1=CC(C)[C@@]2(CO)COC(c3ccc(O)cc3)[C@@H]1C2C` (stereo partly drawn) [4-[(1R,5R)-5-(hydroxymethyl)-6,8,9-trimethyl-3-oxabicyclo[3.3.1]non-7-en-2-yl]phenol] was over 25 µM.
At AeNobo-WT, `O=c1cc(-c2ccc(O)c(O)c2)oc2cccc(O)c12` [5,3’,4’-Trihydroxyflavone, 5,3′,4′-trihydroxyflavone] had an IC50 of 1.64 ± 0.1 µM. The “Inhibition” value on AeNobo-WT (3,4-DNADCF) is listed as “retained inhibitory activity”.
As to `O=c1cc(-c2ccc(O)c(O)c2)oc2cc(O)ccc12` [7,3’,4’-Trihydroxyflavone, 7,3′,4′-trihydroxyflavone], the “Inhibition” value on AeNobo-WT (3,4-DNADCF) was “retained inhibitory activity”. In addition, the 50% inhibitory concentration (IC50) at AeNobo-WT (setting [4]) is 10.3 ± 0.47 µM.
`O=c1c(-c2ccccc2)coc2cc(O)ccc12` [7-Hydroxyisoflavone] returned an IC50 at AeNobo-WT of 5.61 ± 0.3 µM. The “Inhibition” value at AeNobo-WT (3,4-DNADCF) is given as “retained inhibitory activity”.
For the molecule `C[C@]12CC[C@@H]3c4ccc(O)cc4CC[C@H]3[C@@H]1C/C(=C\c1ccccc1)C2=O` [16-benzylidene estrone], on AeNobo-WT (setting [2]), the half-maximal inhibitory concentration (IC50) was over 25 µM.
The same measure, in the same setting: in the case of `Cc1cc(-c2ccc3c(c2)CC[C@]3(C)O)cc(C)c1O` [(S)-5-(4-hydroxy-3,5-dimethylphenyl)-1-methyl-2,3-dihydro-1H-inden-1-ol] it was over 25 µM.
Consider `O=c1cc(-c2ccc(O)cc2)oc2cc(O)cc(O)c12` [Apigenin], for which the IC50 at AeNobo-WT (setting [5]) is over 25 µM; on AeNobo-WT (text and figures, 3,4-DNADCF, read-out: IC50 against AeNobo (WT)), over 25 µM.
Consider `COc1ccc(-c2coc3cc(O)cc(O)c3c2=O)cc1` [Biochanin A], for which the half-inhibitory concentration (IC50) on AeNobo-WT (setting [3]) is 1.84 ± 0.06 µM; at AeNobo-E113A (Table 1, GSH conjugation of 3,4-DNADCF, read-out: IC50 to AeNobo-E113A (μM) (mean ± s.d.)), over 25 µM.
Turning to `CC(C)(c1ccc(O)cc1)c1ccc(O)cc1` [Biosphenol A, 4,4'-propane-2,2-diyldiphenol], the IC50 against AeNobo-WT was over 25 µM.
On to `O=c1cc(-c2ccccc2)oc2cc(O)cc(O)c12` [Chrysin], for which the “Inhibition” value at AeNobo-WT (3,4-DNADCF) is given as “did not exhibit any inhibitory activity”. Further, the 50% inhibitory concentration (IC50) on AeNobo-WT (setting [5]) is over 25 µM.
Regarding `Oc1cc(O)c2cc(O)c(-c3ccc(O)c(O)c3)[o+]c2c1` [Cyanidin chloride], the IC50 was 2.15 ± 0.24 µM at AeNobo-WT (setting [3]) and over 25 µM against AeNobo-E113A.
Molecule `O=c1c(-c2ccc(O)cc2)coc2cc(O)ccc12` [Daidzein] displayed an IC50 against AeNobo-WT of 3.87 ± 0.52 µM. The same molecule showed an IC50 on AeNobo-E113A of over 25 µM. In experiment [1], the “Larvicidal activity against Ae. aegypti” value was “exhibit larvicidal activity” and the “Larvicidal activity toward Ae. aegypti” value is reported as “known to exhibit larvicidal activity”.
For `O=c1c(O)c(-c2ccc(O)c(O)c2)oc2cc(O)ccc12` [Fisetin], the 50% inhibitory concentration (IC50) at AeNobo-WT (setting [3]) was 1.69 ± 0.04 µM; against AeNobo-E113A, over 25 µM.
In the case of `O=c1c(-c2ccc(O)cc2)coc2cc(O)cc(O)c12` [Genistein], the half-inhibitory concentration (IC50) at AeNobo-WT (setting [4]) amounted to 1.86 ± 0.41 µM. Besides, in experiment [1], the “Larvicidal activity against Ae. aegypti” value is “exhibit larvicidal activity”.
For the molecule `O=c1c(O)c(-c2ccc(O)cc2)oc2cc(O)cc(O)c12` [Kaempferol], the concentration for half-maximal inhibition (IC50) at AeNobo-WT (setting [3]) was 4.91 ± 1.69 µM; against AeNobo-E113A it was over 25 µM.
Consider `O=c1cc(-c2ccc(O)c(O)c2)oc2cc(O)cc(O)c12` [Luteolin], for which the IC50 at AeNobo-E113A was found to be 35.8 ± 5.73 µM; on AeNobo-F39L, 1.58 µM. In addition, the “Larvicidal activity toward Ae. aegypti” value in experiment [1] was “known to exhibit larvicidal activity”.
With `O=c1c(O)c(-c2cc(O)c(O)c(O)c2)oc2cc(O)cc(O)c12` [Myricetin], the results for the IC50 against AeNobo-WT and at AeNobo-E113A were 2.91 ± 0.27 µM and over 25 µM, respectively.
On to `O=C1C[C@@H](c2ccc(O)cc2)Oc2cc(O)cc(O)c21` [Naringenin], for which, on AeNobo-WT (setting [3]), the half-maximal inhibitory concentration (IC50) is over 25 µM.
Consider `COc1cc(-c2[o+]c3cc(O)cc(O)c3cc2O)cc(O)c1O` [Petunidin], for which the IC50 is 14.9 ± 2.01 µM at AeNobo-WT (setting [3]) and over 25 µM against AeNobo-E113A.
As for `O=c1c(O)c(-c2ccc(O)c(O)c2)oc2cc(O)cc(O)c12` [Quercetin], the concentration for half-maximal inhibition (IC50) on AeNobo-WT is 0.963 ± 0.094 µM; on AeNobo-E113A it was over 25 µM.
Take `Oc1ccc(/C=C/c2cc(O)cc(O)c2)cc1` [Resveratrol]: the IC50 at AeNobo-WT (setting [2]) is over 25 µM.
For `Oc1ccc([C@H]2COc3cc(O)ccc3C2)cc1` [S-equol], the half-maximal inhibitory concentration (IC50) on AeNobo-WT (setting [3]) was over 25 µM.
On the same count and under the same terms, in the case of `COc1ccc(-c2oc3cc(O)cc(O)c3c(=O)c2O)cc1O` [Tamarixetin] it was over 25 µM.
At AeNobo-WT, `C[C@H]1CCCC(=O)CCC/C=C/c2cc(O)cc(O)c2C(=O)O1` [Zearalenone] came in with an IC50 of over 25 µM.
With `O=C(c1ccc(O)cc1O)c1ccc(O)cc1O` [bis(2,4-dihydroxyphenyl)methanone], the IC50 on AeNobo-WT (setting [2]) was over 25 µM.
As for `CCCCOC(=O)c1ccc(O)cc1` [butyl 4-hydroxybenzoate], the half-inhibitory concentration (IC50) at AeNobo-WT (setting [2]) was over 25 µM.
In the case of `CCCOC(=O)c1ccc(O)cc1` [propyl 4-hydroxybenzoate], the 50% inhibitory concentration (IC50) at AeNobo-WT (setting [2]) was over 25 µM.
On the same count and under the same terms, in the case of `C[C@H]1CCC[C@H](O)CCCCCc2cc(O)cc(O)c2C(=O)O1` [α-zearalanol] it was over 25 µM.
For “(+)-catechin hydrate [(+) Catechin hydrate]”, the concentration for half-maximal inhibition (IC50) at AeNobo-WT (setting [3]) is over 25 µM.

The term IC50 denotes the concentration at which inhibition is half-maximal.
